Laboratory results published in patent EP2948433B1, “ATGLISTATIN AS LIPASE INHIBITOR” (Technische Universität Graz, priority 2013, dated 2014).
Structures can show the parent of a compound that is named as a salt.

Key:
ATGL = details: expressed ATGL (Jenkins 2004) or native ATGL in hepatocytes (Chung 2008); cited from earlier work
[1] = Injection of the water soluble inhibitor in mice, release of FFA and glycerol; assay type: in vivo
Procedure: (§1) As some compounds are not readily soluble in water, it may be preferable to prepare a more readily soluble form of a compound. A possible way to increase the water solubility of a compound is to generate its hydrochloride. The compound is suspended in dest. H2O and a 25 % HCl-solution is added until the solid is completely dissolved. Next, 1 M Tris-HCl-buffer is added to bring the solution to pH 7.4. This procedure yields usually good results. However, in some cases the compound may not be soluble or may precipitate when the pH of the solution elevated to bring it close to neutral pH. In this case, an alternative procedure is provided. The compound is suspended in diethyl ether and dichloromethane is added until the solid is completely dissolved. Then hydrochloric acid is added and all of the solvents are removed under reduced pressure and dried on high vacuum. The resulting colourless oil is water soluble. This procedure was followed with Atglistatin (compound 4) where NMR confirmed the structure of Atglistatin hydrochloride. The water soluble inhibitor may be injected in mice and its impact on the release of free fatty acids (FFA) and glycerol, measured.
Atglistatin (compound 4) was administrated orally by gavage in olive oil (200 µl) or by IP injection. For IP administration, the hydrochloride was generated by the addition of 25% HCl resulting in a water soluble compound. […]

[2] = Water solubility of the hydrochloride; assay type: physicochemical; details: hydrochloride obtained as colourless oil
Procedure: as §1

[3] = In vitro toxicity tests (not specified further); assay type: cell-based
recombinant ATGL = molecular target: T1, recombinant ATGL (Mus musculus, UniProt Q8BJ56); experiment: TG hydrolase activity of E. coli lysates overexpressing recombinant strep-tagged ATGL and CGI-58, radiolabeled triolein substrate; assay type: biochemical; details: inhibition of the activity of recombinant ATGL
T1 construct: Strep-tag; made in house; host or cells: E. coli (XL-1), vector pASK-IBA5+; crude lysate supernatant, not purified
T1 sequence (Q8BJ56 1-486): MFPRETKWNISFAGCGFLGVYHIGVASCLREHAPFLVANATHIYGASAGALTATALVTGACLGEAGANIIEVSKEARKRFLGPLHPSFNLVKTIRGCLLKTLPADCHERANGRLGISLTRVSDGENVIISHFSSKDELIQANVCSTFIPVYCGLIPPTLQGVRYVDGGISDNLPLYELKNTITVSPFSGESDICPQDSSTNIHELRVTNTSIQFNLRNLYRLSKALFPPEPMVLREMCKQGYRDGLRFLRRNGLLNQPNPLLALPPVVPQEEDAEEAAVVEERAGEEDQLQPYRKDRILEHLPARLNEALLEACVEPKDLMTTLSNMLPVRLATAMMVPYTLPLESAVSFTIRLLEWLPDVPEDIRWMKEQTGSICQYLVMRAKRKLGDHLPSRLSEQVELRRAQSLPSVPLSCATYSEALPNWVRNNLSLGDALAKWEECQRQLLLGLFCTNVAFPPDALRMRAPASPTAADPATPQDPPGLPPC
Procedure: • Figure 1. Structure of compounds 1 to 3 (reference) and compound 4 (atglistatin) and effect on ATGL activity. For determination of lipase activity, lysates of E. coli overexpressing recombinant strep-tagged ATGL and CGI-58 were incubated with a substrate containing radiolabeled [9,10-3H(N)]-triolein. Subsequently, FA were extracted and quantified by liquid scintillation counting. Lysates of cells expressing empty vector were set as blank. Inhibitors were solubilized in DMSO and added at the indicated concentrations. DMSO alone was used as negative control. (A) Structure and IC50 values of compounds 1-4. (B) Dose-dependent inhibition of ATGL in the presence of compound 3 and 4. […] (C) Lineweaver-Burk plots for kinetic analysis of ATGL inhibition. Experiments were performed at varying concentrations of substrate (0.05 - 3 mM) in presence and absence of compound 4 (Atglistatin). […] Data are presented as mean +/-S.D. of triplicate determinations. Data for compound 4 are representative for at least three independent experiments. • Figure 2. Selectivity of Atglistatin. Lipase activity of ATGL, HSL, lipoprotein lipase, and pancreatic lipase was determined using triolein as substrate. MGL activity was detected in the presence of rac-(1,3)-monooleoylglycerol as substrate. Inhibitors were solubilized in DMSO and added at the indicated concentrations. DMSO alone was used as negative control. (A) Dose-dependent inhibition of TG hydrolase activity in WAT lysates obtained from wild-type and ATGL-ko mice. (B) Inhibition of TG hydrolase activity in wild-type WAT lysates by Atglistatin (40 µM) and by the HSL inhibitor Hi 76-0079 (20 µM). (C) Effect of Atglistatin on murine MGL (purified from E. coli), and murine HSL (overexpressed in COS-7 lysates) activity. (D) Effect of Atglistatin on purified bovine LPL (Sigma) and pancreatic lipase (from porcine pancreas, Sigma). Data are presented as mean +/- S.D. of triplicate determinations and are representative for at least three independent experiments (p < 0.05 **, p < 0.01; ***, p < 0.001). • Figure 3 Inhibition of lipolysis in 3T3-L1 adipocytes and WAT organ cultures. (A,B) Differentiated 3T3 cells were preincubated with the indicated concentrations of Atglistatin. Thereafter, the medium was replaced by DMEM containing 2% BSA (fatty acid free), 10 µM forskolin, in the presence or absence of inhibitors. The release of FA (A) and glycerol (B) in the media was determined using commercial kits. Basal FA and glycerol release (not shown) was barely detectable under the applied conditions. Data are presented as mean +/- SD and are representative for 2 independent experiments. (C-F) Effect of Atglistatin on WAT basal (C, D) and forskolin-stimulated (E, F) lipolysis. Adipose tissue pieces (∼15 mg, n=5 for each concentration) of wild-type mice were cultured for 8 h in DMEM containing 2 % FA-free BSA and the indicated concentrations of Atglistatin. Subsequently, the medium was replaced by identical fresh medium and samples were collected after incubation for another hour in the presence or in the absence of 10 µM forskolin. Atglistatin was solubilized in DMSO and DMSO alone was used as negative control. Data are presented as mean +/- S.D. (*, p < 0.05 **, p < 0.01; ***, p < 0.001). • Figure 4 Inhibition of lipolysis in vivo. […] At the indicated timepoints blood was taken retroorbitally and plasma parameters were measured using commercial kits. […] 8 h after gavage blood was taken retroorbitally and plasma parameters were measured using commercial kits. […]

O=C1O/C(=C/Br)CC[C@@H]1c1cccc2ccccc12 [(R)-Bromoenol lactone]
ATGL inhibitory activity (ATGL): has been demonstrated

CN(C)C(=O)Nc1cccc(-c2ccc(N(C)C)cc2)c1 [Atglistatin hydrochloride]
release of free fatty acids (FFA) and glycerol after injection [1]: reduction in the release of free fatty acids (FFA) and glycerol
water solubility [2]: water soluble

CCOC(=O)c1nn(-c2ccc(OCC)cc2)cc1O [Compound 1, Ethyl 1-(4-ethoxyphenyl)-4-hydroxy-1H-pyrazole-3-carboxylate]
toxicity in in vitro tests [3]: some limited toxicity

CCOC(=O)c1ccn(-c2ccc(OCC)cc2)n1 [Compound 2, Ethyl 1-(4-ethoxyphenyl)-1H-pyrazole-3-carboxylate, reference compound]
IC50 (recombinant ATGL): 40 µM
toxicity in in vitro tests [3]: some limited toxicity

CCOC(=O)c1cccc(-c2ccc(OCC)cc2)c1 [Compound 3, Ethyl 4'-ethoxybiphenyl-3-carboxylate, reference compound]
IC50 (recombinant ATGL): 12 µM
